Reference: patent US9957214B2, “Multifunctional radical quenchers” (ARIZONA BOARD OF REGENTS ON BEHALF OF ARIZONA STATE …, priority 2012, dated 2018)

Assays:
FRDA lymphocytes = assay: Suppression of ROS production (DCFH-DA flow cytometry) in DEM-treated FRDA lymphocytes; type: cell-based; settings: FRDA lymphocytes or leukemic CEM cells depleted of glutathione with DEM; compared with natural product 8
Description: FIG. 2. Representative flow cytometric analysis of ROS production in FRDA lymphocytes. Following pretreatment with the indicated compounds (5 and 10 μM) for 16 h, the cells were treated with 5 mM diethyl maleate (DEM) for 80 min to deplete glutathione. The cells were washed in phosphate-buffered saline and suspended in phosphate-buffered saline containing 20 mM glucose. Cells were loaded with 10 μM dichlorodihydrofluorescein diacetate (DCFH-DA) for 20 min, and the green fluorescence (DCF) was measured by flow cytometry (C6 Accuri, BD Biosciences, San Jose, Calif.), using a 488 nm excitation laser and the FL1-H channel 530±15 nm emission filter. […] A total of 10,000 events was recorded for each sample and analyzed (C6 Accuri software, BD Biosciences). […] Data are expressed as the mean±SEM (n=3).
Intracellular ROS production was measured in FRDA lymphocyte cells (GM15850, Coriell Cell Repositories, Camden, N.J.) using the oxidant sensitive fluorescent probe 2,7-dichlorodihydrofluorescein diacetate (DCFH-DA) (Molecular Probes) as described previously (Khdour et al. (2011) Pharm. Res. 28, 2896-2909). […] The samples were analyzed immediately by flow cytometry (C6 Accuri, BD Biosciences, San Jose, Calif.), using a 488 nm excitation laser and the FL1-H channel 530±15 nm emission filter. The generation of ROS, mainly peroxides, was detected as a result of the oxidation of DCFH. […]

[1] = Lipid peroxidation induced by AAPH peroxyl radicals in phospholipid liposomes (C11-BODIPY581/591 fluorescence); settings: 10 mM AAPH, phosphate buffer, 40° C.; compared with tocopherol
Description: FIG. 4. Effect of nitrogen-containing 3-alkyl-1,4-benzoquinone derivatives on lipid peroxidation induced by peroxyl radicals generated from thermal decomposition of AAPH in phospholipid liposomes in phosphate buffer at 40° C. […] Relative fluorescence units are normalized to 100% intensity.
Several methods for assaying lipid peroxidation in vitro have been developed (Kuypers et al. (1987) Biochim Biophys Acta. 25, 266-274; Pap et al. (1999) FEBS Lett. 453, 278-282; Drummen et al. (2002) Free RadicBiol Med. 33, 473-490). Almost all of these methods are based on inhibition of free radical-induced oxidation reactions. A widely used fluorescence assay for lipid peroxidation uses lipid soluble cis-parinaric acid as a probe. cis-parinaric acid loses its fluorescence (λexc/em: 320/432 nm) upon interaction with peroxyl radicals and retains its fluorescence in the presence of radical quenchers. cis-parinaric acid is, however, air sensitive, photolabile and absorbs light in the UV region of the spectrum (at ˜320 nm). […] C11-BODIPY^581/591 (Molecular Probes, Eugene, Oreg., USA) stock solution concentrations were determined by measuring the absorption of C11-BODIPY^581/591 at 582 nm using a molar extinction coefficient of 140,000 mol^−1 cm^−1 (R. P. Haugland, (1999) Handbook of Fluorescent Probes and Research Chemicals, Molecular Probes, Inc., Eugene, Oreg.). […]

Row | Compound | Suppression of ROS (in words) (FRDA lymphocytes) | Protection against lipid peroxidation in liposomes (in words) [1]
1 | CCCCCCCCCCCCCC1=C(OC)C(=O)C=C(NCCCC(=O)OC(C)(C)C)C1=O [Compound 7, tert-butyl 4-(4-methoxy-3,6-dioxo-5-tridecylcyclohexa-1,4-dienylamino)butanoate] | very effective in suppressing ROS | 
2 | CCCCCCCCCCCCCC1=C(OC)C(=O)C=C(NCCCC(=O)OCCCCCC)C1=O [Compound 18, Hexyl 4-(4-methoxy-3,6-dioxo-5-tridecylcyclohexa-1,4-dienylamino)butanoate] |  | significant protection against lipid peroxidation
3 | COC1=C2CCCCCCCCCCCCCCCNC(=CC1=O)C2=O [Compound 40] | very effective in suppressing ROS | 
